Measurements as given in patent US8288552B2, “Dihydropyridone amidesas P2X7 modulators” (Roche Palo Alto LLC, priority 2008, dated 2012).

The compounds below were run against T1, P2X7 (UniProt Q99572) (assay: P2X7 pKi of Table 1).
T1 sequence (Q99572 1-595): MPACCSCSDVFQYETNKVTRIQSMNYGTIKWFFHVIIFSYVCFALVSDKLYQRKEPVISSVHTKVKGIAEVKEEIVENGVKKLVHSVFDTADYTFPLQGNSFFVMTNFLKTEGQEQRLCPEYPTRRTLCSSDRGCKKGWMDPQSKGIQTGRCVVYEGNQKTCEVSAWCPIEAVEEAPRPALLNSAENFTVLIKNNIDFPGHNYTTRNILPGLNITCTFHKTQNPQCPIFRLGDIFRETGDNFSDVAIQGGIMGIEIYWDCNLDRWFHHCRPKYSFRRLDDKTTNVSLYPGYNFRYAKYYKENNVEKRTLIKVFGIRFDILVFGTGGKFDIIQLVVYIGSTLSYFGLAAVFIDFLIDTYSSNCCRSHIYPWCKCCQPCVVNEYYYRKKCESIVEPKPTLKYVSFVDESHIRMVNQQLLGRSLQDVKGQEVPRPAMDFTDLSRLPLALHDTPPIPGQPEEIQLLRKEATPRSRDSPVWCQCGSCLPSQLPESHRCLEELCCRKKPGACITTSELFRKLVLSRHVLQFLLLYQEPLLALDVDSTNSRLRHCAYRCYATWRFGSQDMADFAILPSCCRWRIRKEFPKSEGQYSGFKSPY
Type: cell-based
Protocol: Intracellular Calcium Flux (FLIPR) Assay
Compound and Reagent Preparation
Stock solutions of compounds were prepared from powders as a 10 mM DMSO stock solution. These solutions were stored at RT during the two week period of these experiments to prevent freeze-thaw of the DMSO stocks. The DMSO stocks were added to the appropriate assay buffer at a concentration of 10 μM, and then diluted serially to the final concentrations that were tested. […] The aqueous solutions of compounds as well as ATP (Sigma A7699) and BzATP (Sigma B6396) were prepared fresh for each day of experiment.
1321N1 cells stably expressing the full length human P2X7 gene (1321N1-hP2X7) and HEK293 cells stably expressing the full length rat P2X7 gene (HEK293-rP2X7) were obtained from the Roche Cell Culture Facility. 1321N1-hP2X7 cells were grown in Dulbecco's Modified Eagle's Medium (DMEM) high glucose supplemented with 10% FBS and 250 μg/mL G418. HEK293-rP2X7 cells were grown in DMEM/F-12 supplemented with 10% FBS, 1 mM CaCl2, 2 mM MgCl2, 2 mM L-Glutamine and 500 μg/ml G418. Cells were split such that they never became >70% confluent.
Intracellular Calcium Flux (FLIPR)
On the day prior to the experiment, 1321N1-hP2X7 or HEK293-rP2X7 cells were released into suspension with calcium-free PBS+Versene and washed by centrifugation with calcium-free PBS to remove the Versene. Cells were resuspended in growth medium at a density of 2.5×10^5 cells/mL and seeded into black walled, clear bottom 96 well plates (50,000 cells/well) approximately 18 hr prior to intracellular calcium flux experiments.
On the day of the experiment, plates were washed with FLIPR buffer (calcium- and magnesium-free Hank's Balanced Salt Solution (HBSS) supplemented with 10 mM Hepes, 2.5 mM probenecid and 2 mM calcium chloride) using a BIO-TEK 96 channel plate washer and incubated with […] fluo-3 dye at 37° C. for one hr. The dye was then removed by plate washing and the cells were allowed to equilibrate for 20 min at room temperature with antagonist or vehicle (FLIPR buffer). Agonist (100 μM BzATP final concentration for hP2X7; 5 μM BzATP final concentration or rP2X7) was added online with the FLIPR and fluorescence measurements made at 1 sec intervals for 60 sec followed by 3 sec intervals for a further 4 min (5 min total). A final addition of 5 μM ionomycin was made and the maximal BzATP-evoked fluorescence normalized to the maximal ionomycin-evoked fluorescence.

First: Cc1cccc(NC(=O)C2=CNC(=O)C[C@@H]2c2ccc(F)cc2)c1C [Compound 57, (R)-4-(4-Fluoro-phenyl)-6-oxo-1,4,5,6-tetrahydro-pyridine-3-carboxylic acid (2,3-dimethyl-phenyl)-amide]
Second: Cc1cccc(NC(=O)C2=CNC(=O)C[C@H]2c2ccc(F)cc2)c1C [Compound 58, (S)-4-(4-Fluoro-phenyl)-6-oxo-1,4,5,6-tetrahydro-pyridine-3-carboxylic acid (2,3-dimethyl-phenyl)-amide]
The pKi of the first is higher: 7.405 for the first, 6.785 for the second.

First: Cc1cc(C)c(Br)c(NC(=O)C2=CNC(=O)C[C@@H]2c2ccc(F)cc2)c1 [Compound 59, (R)-4-(4-Fluoro-phenyl)-6-oxo-1,4,5,6-tetrahydro-pyridine-3-carboxylic acid(2-bromo-3,5-dimethyl-phenyl)-amide]
Second: Cc1cc(C)c(Br)c(NC(=O)C2=CNC(=O)C[C@H]2c2ccc(F)cc2)c1 [Compound 60, (S)-4-(4-Fluoro-phenyl)-6-oxo-1,4,5,6-tetrahydro-pyridine-3-carboxylic acid(2-bromo-3,5-dimethyl-phenyl)-amide]
The pKi of the first is higher: 7.57 for the first, 6.86 for the second.

Going from Cc1cc(Cl)c(OCCO)cc1NC(=O)C1=CNC(=O)CC1c1ccc(F)cc1 (centres unmarked) [Compound 61, 4-(4-Fluoro-phenyl)-6-oxo-1,4,5,6-tetrahydro-pyridine-3-carboxylic acid [4-chloro-5-(2-hydroxy-ethoxy)-2-methyl-phenyl]-amide] to O=C1CC(c2ccc(F)cc2)C(C(=O)Nc2cc(OCCO)c(Cl)cc2Br)=CN1 (centres unmarked) [Compound 65, 4-(4-Fluoro-phenyl)-6-oxo-1,4,5,6-tetrahydro-pyridine-3-carboxylic acid[2-bromo-4-chloro-5-(2-hydroxy-ethoxy)-phenyl]-amide], the pKi falls from 7.755 to 6.7.

First: Cc1cc(Cl)c(OCCO)cc1NC(=O)C1=CNC(=O)CC1c1cccc(F)c1 (centres unmarked) [Compound 62, 4-(3-Fluoro-phenyl)-6-oxo-1,4,5,6-tetrahydro-pyridine-3-carboxylic acid [4-chloro-5-(2-hydroxy-ethoxy)-2-methyl-phenyl]-amide]
Second: Cc1cc(Cl)c(OCCO)cc1NC(=O)C1=CNC(=O)C[C@@H]1c1cccc(F)c1 [Compound 71, (R)-4-(3-Fluoro-phenyl)-6-oxo-1,4,5,6-tetrahydro-pyridine-3-carboxylic acid[4-chloro-5-(2-hydroxy-ethoxy)-2-methyl-phenyl]-amide]
The pKi of the first is higher: 7.595 for the first, 6.815 for the second.

Going from Cc1cccc(NC(=O)C2=CNC(=O)CC2c2cccc(F)c2)c1C (centres unmarked) [Compound 63, 4-(3-Fluoro-phenyl)-6-oxo-1,4,5,6-tetrahydro-pyridine-3-carboxylic acid(2,3-dimethyl-phenyl)-amide] to O=C1CC(c2cccc(F)c2)C(C(=O)Nc2cccc3c2CCC3)=CN1 (centres unmarked) [Compound 66, 4-(3-Fluoro-phenyl)-6-oxo-1,4,5,6-tetrahydro-pyridine-3-carboxylic acid indan-4-ylamide], the pKi falls from 7.405 to 6.915.

Going from COc1cc(NC(=O)C2=CNC(=O)CC2c2cccc(F)c2)c(C)cc1F (centres unmarked) [Compound 64, 4-(3-Fluoro-phenyl)-6-oxo-1,4,5,6-tetrahydro-pyridine-3-carboxylic acid(4-fluoro-5-methoxy-2-methyl-phenyl)-amide] to CCOc1cc(NC(=O)C2=CNC(=O)CC2c2cccc(F)c2)c(C)cc1Cl (centres unmarked) [Compound 70, 4-(3-Fluoro-phenyl)-6-oxo-1,4,5,6-tetrahydro-pyridine-3-carboxylic acid(4-chloro-5-ethoxy-2-methyl-phenyl)-amide], the pKi falls from 8.17 to 7.425.

First: Cc1ccc(S(N)(=O)=O)cc1NC(=O)C1=CNC(=O)CC1c1ccc(F)cc1 (centres unmarked) [Compound 67, 4-(4-Fluoro-phenyl)-6-oxo-1,4,5,6-tetrahydro-pyridine-3-carboxylic acid(2-methyl-5-sulfamoyl-phenyl)-amide]
Second: Cc1ccc(C(C)C)cc1NC(=O)C1=CNC(=O)C[C@H]1c1cccc(F)c1 [Compound 69, (S)-4-(3-Fluoro-phenyl)-6-oxo-1,4,5,6-tetrahydro-pyridine-3-carboxylic acid(5-isopropyl-2-methyl-phenyl)-amide]
The pKi of the first is lower: 5.515 for the first, 7.01 for the second.
